Reference: patent US20240383923A1, “HETEROARYL DERIVATIVE AND USE THEREOF” (VORONOI INC., priority 2022, published 2024)

test system: BT-474 cancer cells; assay: Inhibition of BT-474 cell proliferation (CellTiter-Glo); assay type: cell-based; settings: Homo sapiens, BT-474 cells, 120 hours
Protocol: BT-474 cancer cells were cultured by using RPMI-1640 medium containing 20% FBS. The BT-474 cancer cells were seeded to a white clear bottom 96 well plate (Corning) at 5,000 cells per well 48 hours before the BT-474 cancer cells were treated with Example Compounds. Example Compounds were diluted in dimethylsulfoxide (3-fold diluted, total 11 concentrations) and 1 μL each was injected so that the final concentration was 0.2 nM to 10 μM. For the measurement of living cells, the cells were stored at room temperature for 10 minutes using the CellTiter-Glo cell viability reagent (Promega) after a predetermined time (120 hours) after the treatment of Example Compounds, and then the luminescence intensity was measured using a reader (SynergyNeo, Biotek). Each test was repeated three times.
The result value was calculated as a cell growth rate (%) compared to a control group. Graphs were plotted and GI50 values were calculated using the GraphPad Prism version 8.0 program, and the results are shown in Table 18 below.

GI50 [nM]	SMILES
100 to 500	C=CC(=O)N1CCC(Nc2cc3c(Nc4cc(C)c(Oc5ccn6ncnc6c5)cc4OC4CN(C)C4)ncnc3cc2OC)CC1 [Example 4, 1-(4-((4-((4-([1,2,4]triazolo[1,5-a]pyridin-7-yloxy)-5-methyl-2-((1-methylazetidin-3-yl)oxy)phenyl)amino)-7-methoxyquinazolin-6-yl)amino)piperidin-1-yl)prop-2-en-1-one]
100 to 500	C=CC(=O)N1CCC(Oc2cc3c(Nc4ccc(Oc5ccn(-c6cnc(OC)nc6)n5)cc4OC)ncnc3cc2OC)CC1 [Example 10, 1-(4-((7-methoxy-4-((2-methoxy-4-((1-(2-methoxypyrimidin-5-yl)-1H-pyrazol-3-yl)oxy)phenyl)amino)quinazolin-6-yl)oxy)piperidin-1-yl)prop-2-en-1-one]
≤ 50	C=CC(=O)N1CCC(Oc2cc3c(Nc4cc(Cl)c(Oc5cccc(OC)c5)cc4OC)ncnc3cc2OC)CC1 [Example 11, 1-(4-((4-((5-chloro-2-methoxy-4-(3-methoxyphenoxy)phenyl)amino)-7-methoxyquinazolin-6-yl)oxy)piperidin-1-yl)prop-2-en-1-one]
≤ 50	COc1cc(Oc2ccn3ncnc3c2)c(C)cc1Nc1ncnc2cc(OC)c(OC3CCN(C(=O)C(F)Cl)CC3)cc12 (stereo not shown) [Example 14, 1-(4-((4-((4-([1,2,4]triazolo[1,5-a]pyridin-7-yloxy)-2-methoxy-5-methylphenyl)amino)-7-methoxyquinazolin-6-yl)oxy)piperidin-1-yl)-2-chloro-2-fluoroethan-1-one]
≤ 50	C=CC(=O)N1CC2CC1CC2Oc1cc2c(Nc3cc(C)c(Oc4ccn5ncnc5c4)cc3OC)ncnc2cc1OC (stereo not shown) [Example 18, 1-(5-((4-((4-([1,2,4]triazolo[1,5-a]pyridin-7-yloxy)-2-methoxy-5-methylphenyl)amino)-7-methoxyquinazolin-6-yl)oxy)-2-azabicyclo[2.2.1]heptan-2-yl)prop-2-en-1-one]
≤ 50	C=CC(=O)N1CC(Oc2cc3c(Nc4cc(C)c(Oc5ccn6ncnc6c5)cc4OC)ncnc3cc2OC)C1 [Example 19, 1-(3-((4-((4-([1,2,4]triazolo[1,5-a]pyridin-7-yloxy)-2-methoxy-5-methylphenyl)amino)-7-methoxyquinazolin-6-yl)oxy)azetidin-1-yl)prop-2-en-1-one]
100 to 500	C=CC(=O)N1CCOc2cc3ncnc(Nc4cc(C)c(Oc5ccn6ncnc6c5)cc4OC)c3cc21 [Example 21, 1-(4-((4-([1,2,4]triazolo[1,5-a]pyridin-7-yloxy)-2-methoxy-5-methylphenyl)amino)-7,8-dihydro-6H-[1,4]oxazino[3,2-g]quinazolin-6-yl)prop-2-en-1-one]
50 to 100	C=CC(=O)Nc1cc2c(Nc3cc(C)c(Oc4ccn5ncnc5c4)cc3OC)ncnc2cc1N1CCC(N2CCOCC2)CC1 [Example 22, N-(4-((4-([1,2,4]triazolo[1,5-a]pyridin-7-yloxy)-2-methoxy-5-methylphenyl)amino)-7-(4-morpholinopiperidin-1-yl)quinazolin-6-yl)acrylamide]
> 500	C=CC(=O)Nc1cc2c(Nc3cc(C)c(Oc4ccn5ncnc5c4)cc3OC)ncnc2cc1N1CCOCC1 [Example 23, N-(4-((4-([1,2,4]triazolo[1,5-a]pyridin-7-yloxy)-2-methoxy-5-methylphenyl)amino)-7-morpholinoquinazolin-6-yl)acrylamide]
≤ 50	COc1cc(Oc2ccn3ncnc3c2)c(C)cc1Nc1ncnc2ccc(NC(=O)/C=C/CN(C)C)c(Cl)c12 [Example 26, (E)-N-(4-((4-([1,2,4]triazolo[1,5-a]pyridin-7-yloxy)-2-methoxy-5-methylphenyl)amino)-5-chloroquinazolin-6-yl)-4-(dimethylamino)but-2-enamide]
≤ 50	C=CC(=O)N1CCN(c2ncc3ncnc(Nc4cc(C)c(Oc5ccn6ncnc6c5)cc4OC)c3n2)CC1 [Example 27, 1-(4-(8-((4-([1,2,4]triazolo[1,5-a]pyridin-7-yloxy)-2-methoxy-5-methylphenyl)amino)pyrimido[5,4-d]pyrimidin-2-yl)piperazin-1-yl)prop-2-en-1-one]
≤ 50	CC#CC(=O)Nc1cc2c(Nc3cc(C)c(Oc4ccn5ncnc5c4)cc3OC)ncnc2cc1OC [Example 28, N-(4-((4-([1,2,4]triazolo[1,5-a]pyridin-7-yloxy)-2-methoxy-5-methylphenyl)amino)-7-methoxyquinazolin-6-yl)but-2-ynamide]
≤ 50	COc1cc2ncnc(Nc3cc(C)c(Oc4ccn5ncnc5c4)cc3OC)c2cc1NC(=O)/C=C/CNC1CCS(=O)(=O)CC1 [Example 38, (E)-N-(4-((4-([1,2,4]triazolo[1,5-a]pyridin-7-yloxy)-2-methoxy-5-methylphenyl)amino)-7-methoxyquinazolin-6-yl)-4-((1,1-dioxidotetrahydro-2H-thiopyran-4-yl)amino)but-2-enamide]
≤ 50	COc1cc2ncnc(Nc3cc(C)c(Oc4ccn5ncnc5c4)cc3OC)c2cc1NC(=O)/C=C/CN1CC2(COC2)C1 [Example 40, (E)-N-(4-((4-([1,2,4]triazolo[1,5-a]pyridin-7-yloxy)-2-methoxy-5-methylphenyl)amino)-7-methoxyquinazolin-6-yl)-4-(2-oxa-6-azaspiro[3.3]heptan-6-yl)but-2-enamide]
≤ 50	COc1cc2ncnc(Nc3cc(C)c(Oc4ccn5ncnc5c4)cc3OC)c2cc1NC(=O)/C(F)=C/C1CCCN1C (stereo not shown) [Example 43, (Z)—N-(4-((4-([1,2,4]triazolo[1,5-a]pyridin-7-yloxy)-2-methoxy-5-methylphenyl)amino)-7-methoxyquinazolin-6-yl)-2-fluoro-3-(1-methylpyrrolidin-2-yl)acrylamide]
≤ 50	COc1cc2ncnc(Nc3cc(C)c(Oc4ccn5ncnc5c4)cc3OC)c2cc1NC(=O)/C(F)=C\[C@@H]1CCCN1C [Example 44, (S,E)-N-(4-((4-([1,2,4]triazolo[1,5-a]pyridin-7-yloxy)-2-methoxy-5-methylphenyl)amino)-7-methoxyquinazolin-6-yl)-2-fluoro-3-(1-methylpyrrolidin-2-yl)acrylamide]
≤ 50	COc1cc2ncnc(Nc3cc(C)c(Oc4cc5ncnn5cn4)cc3OC)c2cc1NC(=O)/C(F)=C\[C@H]1CCCN1C [Example 47, (R,E)-N-(4-((4-([1,2,4]triazolo[1,5-c]pyrimidin-7-yloxy)-2-methoxy-5-methylphenyl)amino)-7-methoxyquinazolin-6-yl)-2-fluoro-3-(1-methylpyrrolidin-2-yl)acrylamide]
≤ 50	COc1cc2ncnc(Nc3cc(C)c(Oc4cc5ncnn5cn4)cc3OC)c2cc1NC(=O)/C(F)=C/[C@H]1CCCN1C [Example 48, (R,Z)—N-(4-((4-([1,2,4]triazolo[1,5-c]pyrimidin-7-yloxy)-2-methoxy-5-methylphenyl)amino)-7-methoxyquinazolin-6-yl)-2-fluoro-3-(1-methylpyrrolidin-2-yl)acrylamide]
≤ 50	COc1cc2ncnc(Nc3cc(F)c(Oc4ccn5ncnc5c4)cc3OC)c2cc1NC(=O)/C(F)=C\[C@H]1CCCN1C [Example 49, (R,E)-N-(4-((4-([1,2,4]triazolo[1,5-a]pyridin-7-yloxy)-5-fluoro-2-methoxyphenyl)amino)-7-methoxyquinazolin-6-yl)-2-fluoro-3-(1-methylpyrrolidin-2-yl)acrylamide]
≤ 50	COc1cc2ncnc(Nc3cc(C)c(Oc4ccc5c(c4)ncn5C)cc3OC)c2cc1NC(=O)/C(F)=C/[C@H]1CCCN1C [Example 56, (R,Z)-2-fluoro-N-(7-methoxy-4-((2-methoxy-5-methyl-4-((1-methyl-1H-benzo[d]imidazol-5-yl)oxy)phenyl)amino)quinazolin-6-yl)-3-(1-methylpyrrolidin-2-yl)acrylamide]
≤ 50	COc1cc2ncnc(Nc3cc(C)c(Oc4ccc5c(c4)ncn5C)cc3OC)c2cc1NC(=O)/C(F)=C\[C@H]1CCCN1C [Example 57, (R,E)-2-fluoro-N-(7-methoxy-4-((2-methoxy-5-methyl-4-((1-methyl-1H-benzo[d]imidazol-5-yl)oxy)phenyl)amino)quinazolin-6-yl)-3-(1-methylpyrrolidin-2-yl)acrylamide]
≤ 50	COc1cc2ncnc(Nc3cc(Cl)c(Oc4ccc5c(c4)ncn5C)cc3OC)c2cc1NC(=O)/C(F)=C/[C@H]1CCCN1C [Example 58, (R,Z)—N-(4-((5-chloro-2-methoxy-4-((1-methyl-1H-benzo[d]imidazol-5-yl)oxy)phenyl)amino)-7-methoxyquinazolin-6-yl)-2-fluoro-3-(1-methylpyrrolidin-2-yl)acrylamide]
≤ 50	COc1cc2ncnc(Nc3cc(Cl)c(Oc4ccc5c(c4)ncn5C)cc3OC)c2cc1NC(=O)/C(F)=C\[C@H]1CCCN1C [Example 59, (R,E)-N-(4-((5-chloro-2-methoxy-4-((1-methyl-1H-benzo[d]imidazol-5-yl)oxy)phenyl)amino)-7-methoxyquinazolin-6-yl)-2-fluoro-3-(1-methylpyrrolidin-2-yl)acrylamide]
≤ 50	COc1cc2ncnc(Nc3cc(F)c(Oc4ccc5c(c4)ncn5C)cc3OC)c2cc1NC(=O)/C(F)=C\[C@H]1CCCN1C [Example 60, (R,E)-2-fluoro-N-(4-((5-fluoro-2-methoxy-4-((1-methyl-1H-benzo[d]imidazol-5-yl)oxy)phenyl)amino)-7-methoxyquinazolin-6-yl)-3-(1-methylpyrrolidin-2-yl)acrylamide]
≤ 50	COc1cc2ncnc(Nc3cc(F)c(Oc4ccc5c(c4)ncn5C)cc3OC)c2cc1NC(=O)/C(F)=C/[C@H]1CCCN1C [Example 61, (R,Z)-2-fluoro-N-(4-((5-fluoro-2-methoxy-4-((1-methyl-1H-benzo[d]imidazol-5-yl)oxy)phenyl)amino)-7-methoxyquinazolin-6-yl)-3-(1-methylpyrrolidin-2-yl)acrylamide]
